Assay results from US20230211023A1, “REPORTER SYSTEM FOR RADIONUCLIDE IMAGING” (Erasmus University Medical Center Rotterdam, priority 2020, published 2023).

Assays:
LgBiT = LgBiT (Oplophorus gracilirostris, UniProt Q9GV45, A31E/A60N/A81I/D135N/F58L/F95D/G42A/G62A/G78A/G94A/G98A/H120P/I103V/I117V/I134L/K70R/L176M/L54V/L73R/L99Q/M102E/N171T/P142E/Q151K/Q38E/Q45L/V71I/Y165I); settings: Dixon et al., 2016; read-out: Kd for binding to LgBiT / NLuc; cited from earlier work
[1] = tested on: cells expressing the reporter gene TMLgBiT; experiment: Binding of radiolabelled peptide to live cells expressing TMLgBiT, gamma counter; type: cell-based; settings: 1 nM peptide, 20,000 cells/well, washed three times
cells expressing the reporter gene TMLgBiT, sequence (as listed by the source): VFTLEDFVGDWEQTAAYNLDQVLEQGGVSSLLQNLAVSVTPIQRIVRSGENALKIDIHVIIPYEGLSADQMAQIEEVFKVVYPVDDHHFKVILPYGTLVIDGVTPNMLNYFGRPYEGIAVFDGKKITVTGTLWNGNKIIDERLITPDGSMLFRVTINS
Experimental: The [^111In]-DOTA-6ahx-HiBiT peptide (1 nM) is added to cells expressing the reporter gene TMLgBiT and cells not expressing TMLgBiT are used as negative control (20,000 cells/well). Cells are washed three times and radioactivity measured at a gamma counter. A clear difference in radioactive signal (2000 fold) resulted between TMLgBiT expressing cells and cells non expressing the reporter gene. In FIG. 3, the radiation (in CPM, measured using a gamma counter) of cells expressing TMLgBiT and control cells after addition of […] of radioactive [^111In]-DOTA-6ahx-HiBiT peptide is provided.

[2] = tested on: subcutaneously injected TMLgBiT expressing cells; experiment: SPECT imaging of mouse injected subcutaneously with TMLgBiT expressing cells; type: in vivo; settings: 1 hour after injection of peptide, 20 MBq
subcutaneously injected TMLgBiT expressing cells, sequence (as listed by the source): as above

PC3-TMLgBiT tumors = experiment: BL and dynamic SPECT/CT imaging of mice bearing PC3-TMLgBiT tumors (FIG. 7); type: in vivo, mouse; settings: dynamic SPECT scan 1 hour after injection of 0,13 nM
PC3-TMLgBiT tumors, sequence (as listed by the source): as above
Experimental: For these experiments, eight-week-old nude BALB/C male mice (n=12) were injected with 5x10^6 PC-3-TM-LgBiT expressing cells (n=8). Cells were prepared for injections in PBS (Sigma-Aldrich) and matrigel (Corning) solution with a 50:50 ratio and a final injectable volume of 50 µL. Tumors were left to grow approximately 3-4 weeks post tumor cell implantation. To determine the functionality of the imaging system, a dynamic whole body SPECT/CT scan (VECT/CT Milabs) was performed. Mice were anesthetized using 1-2% isoflurane/O2 and the body temperature was maintained at 37° C. during the time of imaging (1 h) by using a heated bed aperture. The 1-hour dynamic SPECT/CT scan was performed immediately after tail vein injection of [^111In]-DOTA-6ahx-HiBiT for the PC-3 tumor model, (20 MBq labeled to 0.13 nmol in 200 µL PBS). […] Dynamic scans were obtained over a total duration of 1 h with 30 time frames, directly after injection of [^111In]-DOTA-6ahx-HiBiT. Acquired images were reconstructed using SR-OSEM with 9 iterations and 128 subsets on a 36 × 36 × 35 mm matrix with 0.80 × 0.80 mm isotropic voxels.

LgBiT, sequence (Q9GV45 other isoform, or with tags, fused parts or gaps with the stated changes): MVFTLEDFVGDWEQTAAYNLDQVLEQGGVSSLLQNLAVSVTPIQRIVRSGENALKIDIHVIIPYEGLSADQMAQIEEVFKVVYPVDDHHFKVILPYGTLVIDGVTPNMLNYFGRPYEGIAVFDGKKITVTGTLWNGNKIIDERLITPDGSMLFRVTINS

NVSGWRLFKKISN [NLpep78]
Kd (LgBiT): 3.4 nM

NVTGYRLFKKISN [NLpep79]
Kd (LgBiT): 8.5 nM

[^111In]-DOTA-6ahx-HiBiT: DOTA-6ahx-HiBiT radiolabelled with indium-111
difference in radioactive signal between TMLgBiT expressing cells and cells not expressing the reporter gene [1]: 2000 fold | SPECT detection of TMLgBiT expressing cells in vivo [2]: can be specifically detected | SPECT detection of TMLgBiT expressing cells in vivo ([2]; listed as 111In -DOTA-6ax-HiBit): could be detected in vivo | SPECT detection of TMLgBiT expressing cells in vivo ([2]; listed as radiolabeled HiBiT peptide): High specific signal is detected | SPECT signal from tumor (PC3-TMLgBiT tumors): specific signal from tumor is visible
